Experimental data published in patent US20070111251A1, “Chemical address tags” (priority 2003, published 2007).

Tested on: HeLa cells
Assay: Kinetic imaging of NBD-triazine probe uptake and sequestration, fitted to nested two-compartment transport model
Type: cell-based
Settings: median over optimal solutions within 5% of the best fit
Description: In living cells, image data was simultaneously acquired with an automated, high-content, kinetic screening instrument equipped with an environmental chamber (see, e.g., V. C. Abraham, D. L. Taylor and J. R. Haskins, Trends in Biotechnology 22, 15 (2004); herein incorporated by reference in its entirety), as cells were incubated with the fluorescent molecules and after removal of extracellular probe. Data was analyzed off line, using an image analysis algorithm to measure the statistical pixel intensity distribution associated with fluorescence probe sequestration in the perinuclear region (see, e.g., FIG. 21; see also, e.g., G. J. Ding et al., Journal of Biological Chemistry 273, 28897 (1998); herein incorporated by reference in its entirety). Data was parametrized with a nested, two-compartment, transport model (see, e.g., W. E. Evans, J. J. Schentag and W. J. Jusko., Applied Pharmacokinetics: Principles of Therapeutic Drug Monitoring (Lippincott Williams & Wilkins, Vancouver, W.A., 1992); herein incorporated by reference in its entirety), using a statistical link function to relate the kinetic coefficient of variation (CV) of pixel intensities in the images with the concentration of probe in vesicles and cytoplasm. Optimal kinetic parameters fitting the experimental data for each probe to the system described by the two-compartment model and statistical link function were determined using the simulated annealing technique (see, e.g., M. Pincus., Oper. Res. 18, 1225 (1979); herein incorporated by reference in its entirety). The present invention is not limited to a particular mechanism. Indeed, an understanding of the mechanism is not necessary to practice the present invention.
To assess how well the model accounts for all the different kinetic traces acquired, a “PVE” (proportion of variance explained) by the model was calculated. The PVE is one minus the ratio of the sum of squared differences between observed and fitted values to the sum of squared differences between observed values and their mean. PVE values close to one indicate good fit to the nested two-compartment model. The average PVE across the probes was 0.92, with >50% of the probes yielded PVE values […]. The present invention is not limited to a particular mechanism. Indeed, an understanding of the mechanism is not necessary to practice the present invention.
Cell culture. HeLa cells were grown in RPMI+10% FCS in a 5% CO2 atmosphere at 37° C. and plated in 96-well plates at a density of 3000 cells/well 24 hours prior to the start of the experiment.
Kinetic Imaging. For influx experiments, cells on 96-well plates were switched to imaging media consisting of RPMI containing 1.0 mM Bromophenol Blue—a soluble, cell-impermeant chromophore used to suppress excitation and emission of extracellular (background) dye fluorescence-, 10 μM probe and 0.1 μM Hoescht 33258 to label the cell nuclei. Plates were then transferred to a KineticScan instrument (Cellomics, Inc., Pittsburgh, Pa.), which contains an environmentally controlled CO2/temperature/humidity chamber, and data was acquired with a 20× objective lens. Images acquisition began approximately 10 min after dye addition, using the Hoescht channel to acquire nuclear images and FITC channel to acquire the NBD image. Plate-scanning mode was used for scanning, in which the instrument builds time-stacks of images by scanning the plate multiple times, returning to the same site of the plate at every scan. For efflux experiments, dye-containing media was removed from the wells of the plate. The wells were washed twice with fresh RPMI medium, imaging media was added, and image acquisition restarted 7 min after the dye-containing media was removed. The last time points of the influx experiment served as the first time point of the efflux experiment. Plates were scanned for approximately two hours in the influx experiment and six hours for the efflux experiment, with each well imaged on average every 7 minutes. […]

| median Pap(cyto) (apparent partition coefficient between extracellular medium and cytosol) | median Pap(ves) (apparent partition coefficient between cytosol and intracellular vesicles, k(ves)in/k(ves)out) | SMILES |
| --- | --- | --- |
| 185.83 | 0.52 | CCCCNc1nc(NCCCCCCNc2ccc([N+](=O)[O-])c3nonc23)nc(NCc2ccccc2)n1 [Compound A1] |
| 13.18 | 13.98 | CC(C)Nc1nc(NCCCCCCNc2ccc([N+](=O)[O-])c3nonc23)nc(NCc2ccccc2)n1 [Compound A2] |
| 12.96 | 6.45 | CCCCCCCCNc1nc(NCCCCCCNc2ccc([N+](=O)[O-])c3nonc23)nc(NCc2ccccc2)n1 [Compound A3] |
| 7.72 | 29.83 | CC1CCC(Nc2nc(NCCCCCCNc3ccc([N+](=O)[O-])c4nonc34)nc(NCc3ccccc3)n2)CC1 (stereo not drawn) [Compound A4] |
| 19.23 | 12.11 | CC1CCCCC1Nc1nc(NCCCCCCNc2ccc([N+](=O)[O-])c3nonc23)nc(NCc2ccccc2)n1 (stereo not drawn) [Compound A5] |
| 151.26 | 0.30 | O=[N+]([O-])c1ccc(NCCCCCCNc2nc(NCc3ccccc3)nc(NCC3CCCCC3)n2)c2nonc12 [Compound A6] |
| 7.55 | 33.83 | O=[N+]([O-])c1ccc(NCCCCCCNc2nc(NCc3ccccc3)nc(NC3CCCCC3)n2)c2nonc12 [Compound A7] |
| 3.75 | 63.22 | CC(C)CCNc1nc(NCCCCCCNc2ccc([N+](=O)[O-])c3nonc23)nc(NCc2ccccc2)n1 [Compound A8] |
| 11.54 | 19.12 | O=[N+]([O-])c1ccc(NCCCCCCNc2nc(NCCc3ccccn3)nc(NCc3ccccc3)n2)c2nonc12 [Compound A9] |
| 262.28 | 0.31 | CCCCNc1nc(NCCCCCCNc2ccc([N+](=O)[O-])c3nonc23)nc(NCc2cccc(OC)c2)n1 [Compound B1] |
| 11.59 | 10.82 | COc1cccc(CNc2nc(NCCCCCCNc3ccc([N+](=O)[O-])c4nonc34)nc(NC(C)C)n2)c1 [Compound B2] |
| 3.43 | 31.61 | CCCCCCCCNc1nc(NCCCCCCNc2ccc([N+](=O)[O-])c3nonc23)nc(NCc2cccc(OC)c2)n1 [Compound B3] |
| 18.09 | 12.15 | COc1cccc(CNc2nc(NCCCCCCNc3ccc([N+](=O)[O-])c4nonc34)nc(NC3CCC(C)CC3)n2)c1 (stereo not drawn) [Compound B4] |
| 9.10 | 9.25 | COc1cccc(CNc2nc(NCCCCCCNc3ccc([N+](=O)[O-])c4nonc34)nc(NC3CCCCC3C)n2)c1 (stereo not drawn) [Compound B5] |
| 242.54 | 0.36 | COc1cccc(CNc2nc(NCCCCCCNc3ccc([N+](=O)[O-])c4nonc34)nc(NCC3CCCCC3)n2)c1 [Compound B6] |
| 12.22 | 11.80 | COc1cccc(CNc2nc(NCCCCCCNc3ccc([N+](=O)[O-])c4nonc34)nc(NC3CCCCC3)n2)c1 [Compound B7] |
| 9.79 | 23.66 | COc1cccc(CNc2nc(NCCCCCCNc3ccc([N+](=O)[O-])c4nonc34)nc(NCCC(C)C)n2)c1 [Compound B8] |
| 8.21 | 27.03 | COc1cccc(CNc2nc(NCCCCCCNc3ccc([N+](=O)[O-])c4nonc34)nc(NCCc3ccccc3)n2)c1 [Compound B10] |
| 10.25 | 22.06 | CCCCNc1nc(NCCCCCCNc2ccc([N+](=O)[O-])c3nonc23)nc(NCc2ccc(OC)cc2)n1 [Compound C1] |
| 239.41 | 1.03 | COc1ccc(CNc2nc(NCCCCCCNc3ccc([N+](=O)[O-])c4nonc34)nc(NC(C)C)n2)cc1 [Compound C2] |
| 5.74 | 26.52 | CCCCCCCCNc1nc(NCCCCCCNc2ccc([N+](=O)[O-])c3nonc23)nc(NCc2ccc(OC)cc2)n1 [Compound C3] |
| 22.58 | 9.87 | COc1ccc(CNc2nc(NCCCCCCNc3ccc([N+](=O)[O-])c4nonc34)nc(NC3CCC(C)CC3)n2)cc1 (stereo not drawn) [Compound C4] |
| 10.01 | 9.72 | COc1ccc(CNc2nc(NCCCCCCNc3ccc([N+](=O)[O-])c4nonc34)nc(NC3CCCCC3C)n2)cc1 (stereo not drawn) [Compound C5] |
| 19.15 | 11.94 | COc1ccc(CNc2nc(NCCCCCCNc3ccc([N+](=O)[O-])c4nonc34)nc(NCC3CCCCC3)n2)cc1 [Compound C6] |
| 12.58 | 12.01 | COc1ccc(CNc2nc(NCCCCCCNc3ccc([N+](=O)[O-])c4nonc34)nc(NC3CCCCC3)n2)cc1 [Compound C7] |
| 8.56 | 31.04 | COc1ccc(CNc2nc(NCCCCCCNc3ccc([N+](=O)[O-])c4nonc34)nc(NCCC(C)C)n2)cc1 [Compound C8] |
| 12.33 | 16.46 | COc1ccc(CNc2nc(NCCCCCCNc3ccc([N+](=O)[O-])c4nonc34)nc(NCCc3ccccn3)n2)cc1 [Compound C9] |
| 12.15 | 15.51 | CCCCNc1nc(NCCCCCCNc2ccc([N+](=O)[O-])c3nonc23)nc(NCCc2ccc(OC)cc2)n1 [Compound D1] |
| 149.28 | 1.53 | COc1ccc(CCNc2nc(NCCCCCCNc3ccc([N+](=O)[O-])c4nonc34)nc(NC(C)C)n2)cc1 [Compound D2] |
| 2.75 | 101.21 | CCCCCCCCNc1nc(NCCCCCCNc2ccc([N+](=O)[O-])c3nonc23)nc(NCCc2ccc(OC)cc2)n1 [Compound D3] |
